# Columns and labels:
# human sGC = biological target: T1, human sGC (Homo sapiens, UniProt Q02153); assay: primary cell-free human sGC enzyme assay (cGMP formation); assay type: biochemical; conditions: data not shown
# T1 sequence (Q02153 1-619): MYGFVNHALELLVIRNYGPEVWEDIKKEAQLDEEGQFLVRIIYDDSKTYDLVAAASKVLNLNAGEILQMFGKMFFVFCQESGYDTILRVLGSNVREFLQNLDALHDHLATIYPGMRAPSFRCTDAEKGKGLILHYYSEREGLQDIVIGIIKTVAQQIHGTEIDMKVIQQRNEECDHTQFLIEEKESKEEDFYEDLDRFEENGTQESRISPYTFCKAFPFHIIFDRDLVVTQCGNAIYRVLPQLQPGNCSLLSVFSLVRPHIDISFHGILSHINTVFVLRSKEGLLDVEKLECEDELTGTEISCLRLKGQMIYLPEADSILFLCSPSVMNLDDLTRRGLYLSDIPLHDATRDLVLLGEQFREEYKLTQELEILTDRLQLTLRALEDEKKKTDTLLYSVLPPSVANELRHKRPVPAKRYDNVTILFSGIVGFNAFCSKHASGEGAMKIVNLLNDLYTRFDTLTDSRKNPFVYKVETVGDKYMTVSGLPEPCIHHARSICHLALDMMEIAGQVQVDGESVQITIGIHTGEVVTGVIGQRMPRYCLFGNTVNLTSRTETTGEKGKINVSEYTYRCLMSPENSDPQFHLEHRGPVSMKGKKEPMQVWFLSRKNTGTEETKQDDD
# T1 sequence (Q02108 1-690 partner): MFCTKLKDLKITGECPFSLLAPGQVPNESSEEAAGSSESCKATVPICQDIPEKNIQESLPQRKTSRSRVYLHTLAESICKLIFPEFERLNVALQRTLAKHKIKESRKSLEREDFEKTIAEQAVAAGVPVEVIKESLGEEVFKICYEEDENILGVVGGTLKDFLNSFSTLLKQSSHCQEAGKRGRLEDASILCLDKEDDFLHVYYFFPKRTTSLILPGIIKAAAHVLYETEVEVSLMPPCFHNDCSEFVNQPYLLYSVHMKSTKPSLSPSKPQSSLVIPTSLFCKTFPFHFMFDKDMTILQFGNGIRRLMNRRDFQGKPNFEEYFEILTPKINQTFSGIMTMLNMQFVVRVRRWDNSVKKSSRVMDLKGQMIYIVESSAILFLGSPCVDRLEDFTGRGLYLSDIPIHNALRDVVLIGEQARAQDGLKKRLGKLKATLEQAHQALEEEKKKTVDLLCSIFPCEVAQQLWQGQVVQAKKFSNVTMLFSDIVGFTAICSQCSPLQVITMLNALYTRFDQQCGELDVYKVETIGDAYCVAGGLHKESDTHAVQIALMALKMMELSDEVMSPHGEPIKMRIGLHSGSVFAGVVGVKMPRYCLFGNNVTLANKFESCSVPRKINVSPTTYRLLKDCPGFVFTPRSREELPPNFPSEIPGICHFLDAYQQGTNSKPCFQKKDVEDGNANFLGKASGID
# OATP1B1 = biological target: T2, OATP1B1 (Homo sapiens, UniProt Q9Y6L6); assay: in vitro selectivity profile: OATP1B1 transporter activity; assay type: cell-based
# T2 sequence (Q9Y6L6 1-691): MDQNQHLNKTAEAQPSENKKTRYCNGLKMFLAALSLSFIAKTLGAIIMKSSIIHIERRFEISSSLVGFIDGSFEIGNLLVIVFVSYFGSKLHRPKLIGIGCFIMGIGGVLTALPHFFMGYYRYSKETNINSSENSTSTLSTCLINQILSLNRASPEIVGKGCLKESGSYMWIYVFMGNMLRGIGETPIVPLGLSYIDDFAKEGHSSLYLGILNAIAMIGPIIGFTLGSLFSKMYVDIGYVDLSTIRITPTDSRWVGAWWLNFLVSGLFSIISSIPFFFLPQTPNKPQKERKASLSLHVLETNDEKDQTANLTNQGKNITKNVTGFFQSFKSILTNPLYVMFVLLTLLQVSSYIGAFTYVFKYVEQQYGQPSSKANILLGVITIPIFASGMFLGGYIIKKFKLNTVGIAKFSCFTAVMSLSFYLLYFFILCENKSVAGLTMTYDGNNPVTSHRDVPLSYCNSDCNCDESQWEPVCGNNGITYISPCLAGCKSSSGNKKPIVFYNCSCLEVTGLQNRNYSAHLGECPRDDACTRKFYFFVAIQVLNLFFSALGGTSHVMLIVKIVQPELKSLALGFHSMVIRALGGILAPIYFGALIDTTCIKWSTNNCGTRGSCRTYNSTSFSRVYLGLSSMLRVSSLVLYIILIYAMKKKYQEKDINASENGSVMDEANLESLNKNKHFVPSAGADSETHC
# Method: The secondary pharmacological profile (i.e., sGC-independent activity) of GSK2181236A was assessed in cell-based functional assays by characterizing the interaction between GSK2181236A and 38 distinct human enzymes, ion channels, transporters, and G-protein-coupled receptors including 5-HT (5-HT1B/2A/2C/3), 5-HT transporter (SERT), adenosine (A2a), adrenergic (α1B/2C, β2), Aurora B kinase, cycoloxygenase-2 (COX-2), CaV1.2, cytochrome P450 (CYP2C19, 2D6, and 3A4), dopamine (D2), dopamine transporter (DAT), gamma-aminobutyric acid (GABAA), glycogen synthase kinase-3 (GSK3β) histamine (H1), KV1.5, KV7.1, KV11.1, lymphocyte-specific protein tyrosine kinase (LCK), L-monoamine oxidase (MAO-B) muscarinic (M1/2), NaV1.5, nicotinic (α1 nAChR), noradrenaline transporter (NET), opioid (κ, μ), organic anion transporting polypeptide C (OATP1B1), phosphodiesterase 5 (PDE5), phosphatidylinositol 3-kinase (PI3Kγ), pregnane X receptor (PXR), tachykinin (NK1), and vasopressin (V1a).
structure (smiles),measurement,setting,value
"Cc1cc(-c2ccc(OC(F)(F)F)cc2)ccc1COc1ccccc1-c1cccc(-n2ncc(C(=O)O)c2C(F)(F)F)n1 [GSK2181236A, 1-(6-{2-[({3-methyl-4′-[(trifluoromethyl)oxy]-4-biphenylyl}methyl)oxy]phenyl}-2-pyridinyl)-5-(trifluoromethyl)-1H-pyrazole-4-carboxylic acid]",EC50,human sGC,25 nM
same,selectivity ratio,"OATP1B1; human, cell-based functional assay (human OATP1B1 transporter), vs P-VASP EC50 12.7 nM, read-out: selectivity for sGC over OATP1B1",23
same,IC50,"OATP1B1; read-out: IC50, inhibition of transporter activity",300 nM
